Values quoted from earlier work, collected in patent US20010031279A1, “Controlled delivery of antidepressants” (priority 1998, published 2001).
Where a name gives a salt, the structure may show the parent alone.

## CCc1nn(CCCN2CCN(c3cccc(Cl)c3)CC2)c(=O)n1CCOc1ccccc1 [nefazodone hydrochloride, 2-[3-[4-(3-chlorophenyl)-piperazinyl]propyl]-5-ethyl-4-(2-phenoxyethyl)-2H-1,2,4-triazol-3(4H)-one hydrochloride]
Conventional immediate release formulations
  time of peak plasma concentrations after dosing: about one
In vivo
  half-life: 2 to 4 h
